Test results published in US10377764B2, “Tricyclic heterocyclic compounds as phosphoinositide 3-kinase inhibitors” (Karus Therapeutics Limited, priority 2015, dated 2019).

Assays:
PI3K-p110δ = PI3K-p110δ (Homo sapiens, UniProt O00329); assay: Fold isoform selectivity from Ki determination, non-radiometric ADP-Glo assay (Proqinase); format: biochemical; conditions: class I PI3K isoforms
Source text: (§1) Fold isoform selectivity inhibition against class I PI3K isoforms, as confirmed following Ki determination using the non-radiometric ADP-Glo™ assay (Promega, Madison, Wis., USA) at Proqinase GmbH is listed below.

PI3K-p110β = PI3K-p110β (Homo sapiens, UniProt P42338); assay: as above; format: biochemical; conditions: class I PI3K isoforms
Sequence of PI3K-p110β (P42338 whole entry, canonical isoform): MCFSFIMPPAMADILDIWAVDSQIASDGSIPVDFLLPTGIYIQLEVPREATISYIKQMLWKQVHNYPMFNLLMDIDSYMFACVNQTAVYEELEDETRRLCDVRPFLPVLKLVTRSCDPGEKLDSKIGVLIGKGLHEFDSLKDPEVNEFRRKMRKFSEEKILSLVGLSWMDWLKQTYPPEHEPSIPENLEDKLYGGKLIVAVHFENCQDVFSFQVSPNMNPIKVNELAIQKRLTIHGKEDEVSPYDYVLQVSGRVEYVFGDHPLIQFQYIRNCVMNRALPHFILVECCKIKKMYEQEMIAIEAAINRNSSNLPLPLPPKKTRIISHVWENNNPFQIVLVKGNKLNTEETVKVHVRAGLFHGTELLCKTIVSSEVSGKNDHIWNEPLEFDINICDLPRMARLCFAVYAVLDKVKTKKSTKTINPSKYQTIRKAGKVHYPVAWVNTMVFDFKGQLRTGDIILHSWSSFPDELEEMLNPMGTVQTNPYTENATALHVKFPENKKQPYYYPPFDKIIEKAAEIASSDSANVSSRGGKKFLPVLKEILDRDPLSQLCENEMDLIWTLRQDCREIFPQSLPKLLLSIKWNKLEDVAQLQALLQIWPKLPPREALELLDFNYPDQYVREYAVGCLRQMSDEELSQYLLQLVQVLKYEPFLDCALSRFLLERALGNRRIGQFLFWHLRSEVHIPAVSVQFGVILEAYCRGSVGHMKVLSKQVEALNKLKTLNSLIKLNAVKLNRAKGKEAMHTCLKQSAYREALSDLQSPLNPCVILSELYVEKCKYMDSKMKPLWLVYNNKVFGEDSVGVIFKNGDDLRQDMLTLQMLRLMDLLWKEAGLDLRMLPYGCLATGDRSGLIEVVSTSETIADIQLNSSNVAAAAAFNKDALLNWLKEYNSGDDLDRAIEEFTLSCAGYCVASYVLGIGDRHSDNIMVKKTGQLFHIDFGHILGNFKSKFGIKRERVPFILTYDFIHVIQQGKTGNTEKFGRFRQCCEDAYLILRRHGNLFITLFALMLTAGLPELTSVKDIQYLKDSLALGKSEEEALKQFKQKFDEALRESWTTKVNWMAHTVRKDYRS
Sequence of PI3K-p110β (P27986 whole entry partner, canonical isoform): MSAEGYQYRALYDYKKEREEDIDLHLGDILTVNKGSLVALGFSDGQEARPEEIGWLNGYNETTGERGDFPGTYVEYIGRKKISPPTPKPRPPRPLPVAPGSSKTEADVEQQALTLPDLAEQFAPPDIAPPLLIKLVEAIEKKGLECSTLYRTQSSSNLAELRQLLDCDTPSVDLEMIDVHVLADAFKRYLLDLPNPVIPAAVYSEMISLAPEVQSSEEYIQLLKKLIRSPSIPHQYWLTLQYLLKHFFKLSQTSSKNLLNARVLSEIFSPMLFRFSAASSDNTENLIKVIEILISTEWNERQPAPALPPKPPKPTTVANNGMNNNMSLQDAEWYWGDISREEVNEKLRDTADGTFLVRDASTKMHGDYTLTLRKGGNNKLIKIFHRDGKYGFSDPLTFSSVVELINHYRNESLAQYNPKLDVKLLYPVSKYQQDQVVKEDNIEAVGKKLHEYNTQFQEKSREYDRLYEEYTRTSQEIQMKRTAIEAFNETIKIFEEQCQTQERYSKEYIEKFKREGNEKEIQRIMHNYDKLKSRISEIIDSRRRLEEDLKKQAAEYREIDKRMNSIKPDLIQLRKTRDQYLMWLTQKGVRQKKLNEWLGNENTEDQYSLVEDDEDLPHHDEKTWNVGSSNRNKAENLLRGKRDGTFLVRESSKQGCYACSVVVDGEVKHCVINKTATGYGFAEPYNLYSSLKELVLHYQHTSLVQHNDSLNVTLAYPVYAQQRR
Source text: as §1

[1] = Rodent pharmacokinetics: oral bioavailability and clearance, plasma; format: in vivo, mouse; conditions: for clearance: male, CD1, mouse, iv
Description: The following protocol was used to determine oral bioavailability and clearance.
(§2) The results are shown below. • Species=male mouse; • Strain=CD1, • n=3 male mice per time point per route; • Terminal blood sampling at 8 time points (5 min, 10 min, 0.5 hr, 1 hr, 3 hr, 6 hr, 8 hr and, 24 hr); • Collection of plasma, bio-analysis and report of pharmacokinetic parameters.
Formulation: 10% DMSO, 15% Cremophor, 75% Saline
Dosing: 10 mg/kg P.O. and 5 mg/kg I.V.
as §2, with “parameters. • Formulation: 10% DMSO, 90 & saline” for “parameters.”

[2] = IV, 5 mg/kg, male CD1 mouse plasma, free base
[3] = PO, 10 mg/kg, male CD1 mouse plasma, free base

Sequence of PI3K-p110δ (O00329 whole entry, canonical isoform): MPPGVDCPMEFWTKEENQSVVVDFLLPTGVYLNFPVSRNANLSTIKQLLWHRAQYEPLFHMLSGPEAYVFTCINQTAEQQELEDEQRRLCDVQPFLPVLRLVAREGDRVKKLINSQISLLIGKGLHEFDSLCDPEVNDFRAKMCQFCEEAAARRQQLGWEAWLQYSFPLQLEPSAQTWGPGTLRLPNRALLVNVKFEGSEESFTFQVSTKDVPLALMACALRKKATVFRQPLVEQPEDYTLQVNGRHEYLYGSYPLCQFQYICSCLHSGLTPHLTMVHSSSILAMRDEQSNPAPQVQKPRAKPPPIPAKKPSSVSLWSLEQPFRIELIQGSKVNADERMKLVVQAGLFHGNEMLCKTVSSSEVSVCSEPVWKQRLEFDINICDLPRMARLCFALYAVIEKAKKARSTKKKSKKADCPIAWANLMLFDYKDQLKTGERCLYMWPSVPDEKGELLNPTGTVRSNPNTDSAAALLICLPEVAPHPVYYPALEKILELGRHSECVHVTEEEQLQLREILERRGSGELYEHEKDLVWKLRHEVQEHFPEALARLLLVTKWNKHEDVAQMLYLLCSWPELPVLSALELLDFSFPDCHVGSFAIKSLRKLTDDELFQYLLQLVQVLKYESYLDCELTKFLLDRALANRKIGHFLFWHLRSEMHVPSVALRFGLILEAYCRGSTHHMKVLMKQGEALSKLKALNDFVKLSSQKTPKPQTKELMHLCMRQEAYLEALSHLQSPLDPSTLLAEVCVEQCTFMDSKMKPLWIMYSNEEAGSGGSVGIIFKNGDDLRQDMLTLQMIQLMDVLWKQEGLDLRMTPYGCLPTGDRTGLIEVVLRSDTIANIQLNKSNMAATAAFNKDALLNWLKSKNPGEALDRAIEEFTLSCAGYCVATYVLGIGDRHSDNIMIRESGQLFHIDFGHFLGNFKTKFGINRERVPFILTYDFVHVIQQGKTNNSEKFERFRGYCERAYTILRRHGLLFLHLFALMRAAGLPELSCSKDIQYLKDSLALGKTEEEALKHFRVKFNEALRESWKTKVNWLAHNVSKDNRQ
Sequence of PI3K-p110δ (P27986 whole entry partner, canonical isoform): as the sequence (P27986 whole entry partner, canonical isoform) above

SMILES	FOLD Ki p110δ/p110α (PI3K-p110δ)	FOLD Ki p110β/p110α (PI3K-p110β)	other results
Fc1cc(-c2nc(N3CCOCC3)c3oc4ncc(CN5CCC6(CC5)COC6)cc4c3n2)c2cc[nH]c2c1 [Example B, 4-(6-Fluoro-1H-indol-4-yl)-6-(morpholin-4-yl)-12-{2-oxa-7-azaspiro[3.5]nonan-7-ylmethyl}-8-oxa-3,5,10-triazatricyclo[7.4.0.0^2,7]trideca-1(13),2(7),3,5,9,11-hexaene]	*** (*** ≥50x < 100x)	** (** ≥10x < 50x)	–
CCN1CCN(Cc2cnc3oc4c(N5CCOCC5)nc(-c5c(F)ccc6[nH]ccc56)nc4c3c2)CC1=O [Example P]	** (** ≥10x < 50x)	* (* <10x)	–
COC1CN(Cc2cnc3oc4c(N5CCOCC5)nc(-c5cc(C(F)(F)F)cc6[nH]ccc56)nc4c3c2)C1 [Example L, 12-[(3-Methoxyazetidin-1-yl)methyl]-6-(morpholin-4-yl)-4-[6-(trifluoromethyl)-1H-indol-4-yl]-8-oxa-3,5,10-triazatricyclo[7.4.0.0^2,7]trideca-1(13),2(7),3,5,9,11-hexaene]	* (* <10x)	* (* <10x)	–
COC1CN(Cc2cnc3sc4c(N5CCOCC5)nc(-c5c(F)ccc6[nH]ccc56)nc4c3c2)C1 [Example K, 4-(5-Fluoro-1H-indol-4-yl)-12-[(3-methoxyazetidin-1-yl)methyl]-6-(morpholin-4-yl)-8-thia-3,5,10-triazatricyclo[7.4.0.0^2,7]trideca-1(13),2(7),3,5,9,11-hexaene]	* (* <10x)	* (* <10x)	–
Fc1ccc2[nH]ccc2c1-c1nc(N2CCOCC2)c2oc3ncc(N4CCOCC4)cc3c2n1 [Example O, 4-(5-Fluoro-1H-indol-4-yl)-6,12-bis(morpholin-4-yl)-8-oxa-3,5,10-triazatricyclo[7.4.0.0^2,7]trideca-1(9),2,4,6,10,12-hexaene]	* (* <10x)	* (* <10x)	–
c1cc(-c2nc(N3CCOCC3)c3oc4ncc(CN5CCCCC5)cc4c3n2)c2cc[nH]c2c1 [Example I in WO 2011/021038, reference compound]	–	–	clearance ([1]; plasma, 5 mg/kg, 5 mg/kg I.V., male CD1 mouse, mesylate salt, 10% DMSO, 90 & saline): 66 mL/min/kg
Fc1ccc2[nH]ccc2c1-c1nc(N2CCOCC2)c2oc3ncc(CN4CCC5(CC4)COC5)cc3c2n1 [Example D, 4-(5-Fluoro-1H-indol-4-yl)-6-(morpholin-4-yl)-12-{2-oxa-7-azaspiro[3.5]nonan-7-ylmethyl}-8-oxa-3,5,10-triazatricyclo[7.4.0.0^2,7]trideca-1(13),2(7),3,5,9,11-hexaene]	*** (*** ≥50x < 100x)	*** (*** ≥50x < 100x)	–
COC1CN(Cc2cnc3oc4c(N5CCOCC5)nc(-c5cccc6[nH]c(C(F)(F)F)cc56)nc4c3c2)C1 [Example H, 12-[(3-Methoxyazetidin-1-yl)methyl]-6-(morpholin-4-yl)-4-[2-(trifluoromethyl)-1H-indol-4-yl]-8-oxa-3,5,10-triazatricyclo[7.4.0.0^2,7]trideca-1(13),2(7),3,5,9,11-hexaene]	* (* <10x)	* (* <10x)	–

Second part, led by results:

FOLD Ki p110δ/p110α (PI3K-p110δ)	FOLD Ki p110β/p110α (PI3K-p110β)	SMILES	other results
** (** ≥10x < 50x)	** (** ≥10x < 50x)	COC1CN(Cc2cnc3oc4c(N5CCOCC5)nc(-c5cccc6[nH]cc(F)c56)nc4c3c2)C1 [Example Q]	–
** (** ≥10x < 50x)	* (* <10x)	COC1CN(Cc2cnc3oc4c(N5CCOCC5)nc(-c5ccc(F)c6[nH]ccc56)nc4c3c2)C1 [Example N, 4-(7-Fluoro-1H-indol-4-yl)-12-[(3-methoxyazetidin-1-yl)methyl]-6-(morpholin-4-yl)-8-oxa-3,5,10-triazatricyclo[7.4.0.0^2,7]trideca-1(13),2(7),3,5,9,11-hexaene]	–
*** (*** ≥50x < 100x)	*** (*** ≥50x < 100x)	COC1CN(Cc2cnc3oc4c(N5CCOCC5)nc(-c5cc(F)cc6[nH]ccc56)nc4c3c2)C1 [Example I, 4-(6-Fluoro-1H-indol-4-yl)-12-[(3-methoxyazetidin-1-yl)methyl]-6-(morpholin-4-yl)-8-oxa-3,5,10-triazatricyclo[7.4.0.0^2,7]trideca-1(13),2(7),3,5,9,11-hexaene]	–
** (** ≥10x < 50x)	** (** ≥10x < 50x)	COC1CN(Cc2cnc3oc4c(N5CCOCC5)nc(-c5c(F)ccc6[nH]ccc56)nc4c3c2)C1 [Example E, 4-(5-Fluoro-1H-indol-4-yl)-12-[(3-methoxyazetidin-1-yl)methyl]-6-(morpholin-4-yl)-8-oxa-3,5,10-triazatricyclo[7.4.0.0^2,7]trideca-1(13),2(7),3,5,9,11-hexaene]	AUC [1, 2]: 2930 ng·h/mL; AUC(0-inf) [1, 2]: 3010 ng·h/mL; AUClast [1, 2]: 2930 ng·h/mL; Cmax [1, 2]: 3620 ng/mL; Tmax [1, 2]: 4.8 min; Vd [1, 2]: 1.29 L/kg; half-life ([1]; IV, 5 mg/kg, male CD1 mouse plasma, free base, 10% DMSO, 15% Cremophor, 75% Saline): 33 min; AUC [1, 3]: 2780 ng·h/mL; AUC(0-inf) [1, 3]: 2830 ng·h/mL; AUC(0-t) [1, 3]: 2780 ng·h/mL; Cmax [1, 3]: 1290 ng/mL; Tmax [1, 3]: 30 min; half-life ([1]; PO, 10 mg/kg, male CD1 mouse plasma, free base, 10% DMSO, 15% Cremophor, 75% Saline): 80.4 min; clearance ([1]; plasma, 5 mg/kg, male CD1 mouse plasma, free base): 28 mL/min/kg; bioavailability ([1]; plasma, oral, 10 mg/kg P.O. and 5 mg/kg I.V., male CD1 mouse, free base, 10% DMSO, 15% Cremophor, 75% Saline, read-out: Oral bioavailability (F)): 47%
